Results reported in patent US7754718B2 (priority 2004, dated 2010).

How the values were obtained:
L526M/M550V (adr) HBV = assay: Extracellular HBV DNA in lamivudine-resistant DM2 cells, real-time PCR; assay type: cell-based; conditions: Hepatitis B virus, 144 h, read-out: EC50 (μM) L526M/M550V (adr)
Source text: (§1) Hep.G2.2.15 is a hepatoblastoma cell line stably transfected with a HBV genome (ayw strain) (Sells et al., 1987, Proc Natl Acad Sci USA. 84 (4):1005-1009). W10, a HepG2 cell line, was transfected with an adr HBV strain (Fu et al., 2000, Antimicrob Agents Chemother 44 (12): 3402-3407; Fu et al., 1999, Biochem Pharmacol. 57 (12): 1351-1359). These cell lines were used to assess the antiviral activity of helioxanthin and 22. Various concentrations of the drugs in minimal essential medium with Earle's salts (MEME) containing 10% fetal bovine serum (FBS) were tested in 6-day-old cultures. The drugs were left in the culture medium for 3 days, then the medium was removed and fresh medium containing the same concentration of the drugs was added. At the end of another 3-day period, the culture medium and cells were harvested to measure the HBV replication level. The Lamivudine resistant cell line DM2 (Fu et al., 2000, Antimicrob Agents Chemother 44 (12): 3402-3407) is also a hepatoblastoma cell line stably transfected with HBV genome (adr strain) which contains the L526M/M550V double mutation. The culture conditions of DM2 are the same as that of HepG.2.2.15.
(§2) Quantitative real-time PCR was used to determine the extracellular HBV copy number in the medium of DM2 cells with and without drug treatment. […] Quantification of the copy number was determined by comparing the sample amount to a standard curve generated in each run. […]
(§3) W10 and DM2 cells (Fu et al., 2000, Antimicrob Agents Chemother 44 (12): 3402-3407), were used to evaluate the effects of these two compounds on wt HBV (adr strain) and its lamivudine-resistant HBV. […] After a 6-day treatment, the amount of HBV DNA, which was secreted into the medium, was evaluated using real-time PCR (FIG. 3). […] The real-time PCR method was validated by comparing the results of intracellular HBV DNA levels obtained from the Southern blot hybridization analysis to the results from real-time PCR that measured HBV DNA copies in the HepG2.2.15 medium with or without treatment of lamivudine. […]

EBV = assay: In vitro antiviral assay for EBV; assay type: cell-based, Epstein-Barr Virus; conditions: human gammaherpesvirus 4, read-out: Antiviral Activities (EC50, μM) EBV
Summary of the method: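 Performed according to previously reported procedures for each virus; no further conditions are given for the HSV-2, CMV, HIV or EBV assays.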

wt (adr) HBV = assay: Extracellular HBV DNA in W10 cells, real-time PCR; assay type: cell-based; conditions: Hepatitis B virus, 144 h, 6-day treatment, HBV DNA in medium by real-time PCR
Source text: as §1, §2, §3

SMILES	EC50 (L526M/M550V (adr) HBV) [µM]	EC50 (EBV) [µM]	EC50 (wt (adr) HBV) [µM]
O=C1OCc2c1cc1ccc3c(c1c2-c1ccc2c(c1)OCO2)OCO3 [Compound 2, 10-Benzo[1,3]dioxol-5-yl-9H-furo[3′,4′:6,7]naphtho[1,2-d][1,3]dioxol-7-one, reference compound]	0.1	> 20	0.4
Nc1ccn([C@@H]2CS[C@H](CO)O2)c(=O)n1 [Compound 3TC, (−)-(2R,5S)-1-[2-(hydroxymethyl)oxathiolan-5-yl]cytosine]	> 3	0.4	0.02 ± 0.03
COc1ccc(-c2c3c(cc4ccc5c(c24)OCO5)C(=O)NC3)cc1OC [Compound 22, 10-(3,4-Dimethoxy-phenyl)-8,9-dihydro-1,3-dioxa-8-aza-dicyclopenta[a,g]naphthalen-7-one]	0.0003	> 20	0.004
